Measurements taken from US5877204A, “Compounds containing a michael-acceptor, especially maleimide or maleic acid derivatives, directly or indirectly linked to a chromophore and their use in long lasting sunscreen compositions” (Vanguard Medica Limited, priority 1994, dated 1999).
“And” between values parts separate entries of the source, which are not always exact repeats. Equal entries are not always repeated. Where two headings read alike, the source gives them in different places. Values belong to the molecule of their own block, whether it stands above or below them.

Columns and labels:
[1] = UV absorption of the chromophore (λmax, ε); type: physicochemical; set-up: key to λmax: λmax in nm; conditions: for ε: at λmax, in M-1·cm-1 (unit assumed)
Excerpt: This can sometimes be a problem since if the change in λmax is too great, the chromophore may no longer absorb light in the UVA or UVB wavelength range.
An example of this change is 4-aminobenzophenone which has a λmax of 318 nm which is in the UVB range. When the amino group is replaced by a maleamic acid group, the λmax of the chromophore shifts to 306 nm which is still within the UVB range but when the amino group is replaced by a maleimide residue, the λmax falls to 258 nm. This is outside the range of UVB although there is a restoration of UVB activity when the maleimide is reacted with cysteine as it would be when applied to the skin (λmax=293 nm). The changes are easily rationalised on the basis of conjugative effects but the effects of attaching Michael acceptors to the various chromophores which may be used cannot always easily be predicted. This problem can be overcome to a large extent simply by separating the chromophore from the Michael acceptor using a spacer. Particularly useful compounds therefore include those in which the group R is C1 -C8 alkyl-YZ, C2 -C8 alkenyl-YZ or C2 -C8 alkynyl-YZR and especially those in which Y is O. Compounds in which a hexyloxy linker is used (that is, R is (CH2)6 OZ) are especially preferred.

[2] = Ames tests (mutagenicity and toxicity), with or without rat liver metabolic activation system S9; type: cell-based
Excerpt: Among the important criteria for topically applied sunscreens, safety in use has the highest priority. It was thus necessary to investigate the mutagenicity of the maleimide and maleamic acid derivatives of sunscreens. Six compounds of the present invention were chosen as representative of the main classes of sunscreen and submitted for Ames tests.

[3] = background, known sunscreen absorbers; cited from earlier work
DNA = conditions: cited from earlier work
horn hoof keratin = assay: Substantivity test with powdered horn-hoof keratin (uv absorptivity); type: binding, various animals
Excerpt: Keratin prepared from the horns and hooves of various animals is commercially available, and this was used in a similar way to the hair (above). The keratin was finely powdered and stirred with a solution of the maleimido compound and its substantivity estimated by uv absorptivity measurements.

[4] = Reaction of maleimide derivatives with L-cysteine ethyl ester (tlc); conditions: room temperature
Method: In order to underpin the principle of reaction of maleimido derivatives with the cysteine thiol groups, two model reactions were studied. Thus the reactions between L-cysteine ethyl ester and N-phenylmaleimide and N-(4-benzoylphenyl)maleimide were carried out. In each case, the reaction produced the diastereoisomeric product mixtures in reasonable yields at room temperature. All starting maleimides had reacted within 30 minutes (tlc). The two products were isolated and characterised.
The mildness and rapidity of these reactions indicate that the maleimido groups confer the ability for reaction with the nucleophilic groups of keratin.

hair keratin = assay: Substantivity test with human hair (uv assay of supernatant); type: binding
Method: Initial tests were conducted with human hair specially cleaned and prepared to provide as near to a standard substrate as possible. The method adopted utilised the reduction in ultra-violet absorptivity in the supernatant solution in contact with hair when the compound under test was absorbed into the hair surface. Standard and control solutions were employed. […] Similar tests with hair have been quoted in the patent literature as evidence, and as a standard test, for substantivity of sunscreens and other cosmetics.

[5] = characterisation in the Examples, solvent not stated
[6] = effect of attaching Michael acceptor to 4-aminobenzophenone chromophore
[7] = 1.0000 g horn hoof keratin, single tests (0.4360 g and 0.4741 g maleimide added)
[8] = horn hoof keratin, average of the two tests
[9] = uv assay, 1.0000 g hair, single tests (0.4520 g and 0.4670 g maleimide added)

ε ([1]; solvent not stated): 15563
λmax ([1]; characterisation in Example 10, unit not given): 245
SMILES: CCCCOC(=O)c1ccc(N2C(=O)C=CC2=O)cc1 [Example 10, N-(4-n-butyloxycarbonylphenyl)maleimide]

ε ([1]; solvent not stated): 15806
λmax [1, 5]: 294 nm
SMILES: CCCCOC(=O)c1ccc(NC(=O)/C=C\C(=O)O)cc1 [Example 9, N-(4-n-butyloxycarbonylphenyl)maleamic Acid]

ε ([1]; solvent not stated): 15844
λmax [1, 5]: 245 nm
SMILES: COC(=O)c1ccc(N2C(=O)C=CC2=O)cc1 [Example 8, N-(4-methoxycarbonylphenyl)maleimide]

SMILES: O=C(O)/C=C\C(=O)Nc1ccc(/C=C/C(=O)O)cc1 [Example 5, N-[4-(2-carboxy-(E)-ethenyl)phenyl]maleamic Acid]
Toxicity ([2]; +S9): 5000 μG plate^-1
Toxicity ([2]; -S9): 5000 μG plate^-1

SMILES: O=C(O)/C=C\C(=O)Nc1ccc(C(=O)O)cc1 [Example 1, N-(4-carboxyphenyl)maleamic Acid]
Toxicity ([2]; +S9): 5000 μG plate^-1
Toxicity ([2]; -S9): 5000 μG plate^-1

λmax [1, 6]: 293 nm
SMILES: NC(CSC1CC(=O)N(c2ccc(C(=O)c3ccccc3)cc2)C1=O)C(=O)O (centres unmarked) [maleimide reacted with cysteine]

SMILES: CCCCC(CC)COC(=O)C=Cc1ccc(OC)cc1 (centres unmarked) [2-ethylhexyl-4'-methoxycinnamate]
λmax [3]: 308 nm

SMILES: O=C(O)/C=C\C(=O)Nc1ccc(C(=O)c2ccccc2)cc1 [Example 3, N-(4-benzoylphenyl)maleamic Acid]
ε ([1]; solvent not stated): 20560
λmax [1, 5]: 306 nm
λmax [1, 6]: 306 nm
Toxicity ([2]; +S9): 2500 μG plate^-1
Toxicity ([2]; -S9): 2500 μG plate^-1
Mutagenicity ([2]; Ames test, with or without S9): Negative

SMILES: O=C(O)c1ccc(N2C(=O)C=CC2=O)cc1 [Example 2, N-(4-carboxyphenyl)maleimide]
Toxicity ([2]; +S9): 500 μG plate^-1
Toxicity ([2]; -S9): 500 μG plate^-1

SMILES: CCN1C(=O)C=CC1=O
Toxicity ([2]; +S9): 50 μG plate^-1
Toxicity ([2]; -S9): 25 μG plate^-1

SMILES: O=C(O)/C=C\C(=O)NCCCCCCOc1ccc(C(=O)c2ccccc2)cc1 [Example 11, N-[6-(4-benzoylphenoxy)-hexyl]-maleamic Acid]
λmax ([1]; CH2 Cl2): 285 nm
ε ([1]; CH2 Cl2): 16047
Toxicity ([2]; +S9): 2500 μG plate^-1
Toxicity ([2]; -S9): 2500 μG plate^-1

SMILES: COc1c2ccoc2cc2oc(=O)ccc12 [5-methoxypsoralen (5-MOP), 5-methoxypsoralen]
photobinding to DNA (DNA): photobinds to DNA
photocarcinogenicity (DNA): photocarcinogen
photomutagenicity (DNA): photomutagen

SMILES: O=C(c1ccccc1)c1ccc(OCCCCCCN2C(=O)C=CC2=O)cc1 [Example 12, N-[6-(4-benzoylphenoxy)-hexyl]-maleimide]
λmax ([1]; CH2 Cl2): 286 nm
ε ([1]; CH2 Cl2): 16590
Toxicity ([2]; +S9): 800 μG plate^-1
Toxicity ([2]; -S9): 200 μG plate^-1

λmax [1, 6]: 318 nm
SMILES: Nc1ccc(C(=O)c2ccccc2)cc1 [4-aminobenzophenone, reference compound]

SMILES: O=C1C=CC(=O)N1c1ccccc1 [N-phenylmaleimide]
Substantivity (horn hoof keratin; [7]): 22.2% and 21.1%
Wt maleimide absorbed (horn hoof keratin; [7]): 0.0968 g and 0.1001 g
Average substantivity (horn hoof keratin; [8]): 21.7%
Average wt maleimide absorbed (horn hoof keratin; [8]): 0.0985 g
time within which all starting maleimide had reacted [4]: ≤ 30 min
Average substantivity (hair keratin; hair, average of the two tests): 24.5%
Average wt maleimide absorbed (hair keratin; hair, average of the two tests): 0.1129 g
reduction in ultra-violet absorptivity of supernatant in contact with hair (hair keratin; initial tests, in words): considerable reduction in absorptivity
Substantivity (hair keratin; [9]): 18.5% and 30.4%
Wt maleimide absorbed (hair keratin; [9]): 0.0837 g and 0.1421 g

ε ([1]; solvent not stated): 16013
λmax [1, 5]: 294 nm
SMILES: COC(=O)c1ccc(NC(=O)/C=C\C(=O)O)cc1 [Example 7, N-(4-methoxycarbonylphenyl)maleamic Acid]

SMILES: COc1ccc(C(=O)CC(=O)c2ccc(C(C)(C)C)cc2)cc1 [4-^t butyl-4'-methoxydibenzoylmethane]
λmax [3]: 355 nm

SMILES: O=C(O)/C=C/c1ccc(N2C(=O)C=CC2=O)cc1 [Example 6, N-[4-(2-carboxy-(E)-ethenyl)phenyl]maleimide]
Toxicity ([2]; +S9): 200 μG plate^-1
Toxicity ([2]; -S9): 200 μG plate^-1

SMILES: O=C(c1ccccc1)c1ccc(N2C(=O)C=CC2=O)cc1 [Example 4, N-(4-benzoylphenyl)maleimide]
λmax [1, 6]: 258 nm
time within which all starting maleimide had reacted [4]: ≤ 30 min
Toxicity ([2]; +S9): 100 μG plate^-1
Toxicity ([2]; -S9): 40 μG plate^-1
